The values that follow come from ChEMBL document CHEMBL3867473, “The comparison of neuroprotective effects of isoliquiritigenin and its Phase I metabolites against glutamate-induced HT22 cell death” (2016).

Calls of active or inactive are those of the source. The rule behind the calls is not given here.

Test [1] can be described thus: Neuroprotective activity against glutamate-induced cell death in mouse HT22 cells assessed as cell viability at 10 uM pretreated for 12 hrs prior to glutamate-challenge measured after 12 hrs by MTT assay (reference value: 43.35 +/- 1.48%). The format is functional. The following applies: HT-22, read-out: Activity.
For test [2], the system named is HT-22. Put plainly: Neuroprotective activity against glutamate-induced oxidative stress in mouse HT22 cells assessed as ROS level at 5 uM pretreated for 12 hrs prior to glutamate-challenge measured after 12 hrs (reference value: 241.63 +/- 7.98%). It is filed as functional.
Test [3] concerns HT-22. Put plainly: Neuroprotective activity in mouse HT22 cells assessed as decrease of glutamate-induced ROS production at 5 uM pretreated for 12 hrs prior to glutamate-challenge measured after 12 hrs by CM-H2CDFDA staining-based flow cytometry (reference value: 3.95 +/- 0.01). It is filed as functional. On the technique in general: A flow cytometer gives signals particle by particle.

The target of test [4] is MAP kinase p38 (Mus musculus) (UniProt P47811+O08911+Q9WUI1+Q9Z1B7). Put plainly: Inhibition of glutamate-induced increase in p38 phosphorylation in mouse HT22 cells at 5 uM pretreated for 12 hrs followed by glutamate-challenge measured after 12 hrs by Western blotting assay (reference value: 2.46 +/- 0.96). It is filed as cell-based. The following applies: HT-22. A general note: Immunoblotting shows a protein as a band on a membrane.

Test [5] deals with HT-22. Put plainly: Inhibition of glutamate-induced increase in ERK phosphorylation in mouse HT22 cells at 5 uM pretreated for 12 hrs followed by glutamate-challenge measured after 12 hrs by Western blotting assay (reference value: 3.01 +/- 0.3). It is filed as cell-based.
The subject of test [6] is HT-22. Put plainly: Inhibition of glutamate-induced increase in JNK phosphorylation in mouse HT22 cells at 5 uM pretreated for 12 hrs followed by glutamate-challenge measured after 12 hrs by Western blotting assay (reference value: 1.84 +/- 0.11). It is filed as cell-based.
Test [7] has as its system HT-22. Put plainly: Neuroprotective activity in mouse HT22 cells assessed as decrease in glutamate-induced reduction of full-length Bid level at 5 uM pretreated for 12 hrs prior to glutamate-challenge measured after 12 hrs by Western blotting assay. It is filed as functional, cell-based.
The subject of test [8] is HT-22. Put plainly: Neuroprotective activity in mouse HT22 cells assessed as decrease in glutamate-induced reduction of full-length Bid level at 5 uM pretreated for 12 hrs prior to glutamate-challenge measured after 12 hrs by Western blotting assay (reference value: 0.9 +/- 0.05). The format is functional.
The subject of test [9] is HT-22. Put plainly: Neuroprotective activity in mouse HT22 cells assessed as decrease of glutamate-induced ROS production at 10 uM pretreated for 12 hrs prior to glutamate-challenge measured after 12 hrs by CM-H2CDFDA staining-based flow cytometry (reference value: 3.95 +/- 0.01). The format is functional.
For test [10], the system named is HT-22. Put plainly: Neuroprotective activity against glutamate-induced oxidative stress in mouse HT22 cells assessed as ROS level at 10 uM pretreated for 12 hrs prior to glutamate-challenge measured after 12 hrs (reference value: 241.63 +/- 7.98%). The format is functional.

On to `O=C(/C=C/c1ccc(O)cc1)c1cc(O)c(O)cc1O`, for which, in test [1], the viability at 10 µM amounted to 83.5%. Moreover, the Activity with HT-22 [2] stood at 137.94%. In addition, the “fold change (FC)” value in the test on HT-22 [3] worked out at 2.39; in test [4] it was 1.21; with HT-22 [5], 1.64; with HT-22 [6], 1.08. For the same compound, in the test with HT-22 [7], the outcome was Active.
Take `O=C(/C=C/c1ccc(O)c(O)c1)c1ccc(O)cc1O` [BUTEIN]: the viability at 10 µM in test [1] came out at 92.5%. Also, the Activity in the test on HT-22 [2] is recorded as 59.79%. For the same compound, the “fold change (FC)” value with HT-22 [3] was found to be 0.69; in the test with HT-22 [8], 1.22; in test [4], 0.75; in the test on HT-22 [5], 1.49; in the test with HT-22 [6], 0.73.
As for `O=C(/C=C/c1ccc(O)cc1)c1ccc(O)cc1O` [ISOLIQUIRITIGENIN], the viability at 10 µM in [1] amounted to 78.9%. The Activity in the test on HT-22 [2] amounted to 96.19%. The “fold change (FC)” value in the test on HT-22 [3] is 1.44; with HT-22 [8], 0.94; in test [4] it was 1.03; in the test on HT-22 [5], 0.8; in the test with HT-22 [6], 1.
For the compound `O=c1c(O)c(-c2ccc(O)c(O)c2)oc2cc(O)cc(O)c12` [QUERCETIN], the viability at 10 µM in test [1] was 93.7%. Also, the “fold change (FC)” value came to 1.16 in the test on HT-22 [8], 0.77 with HT-22 [5] and 0.79 with HT-22 [9]. Also, the Activity in the test on HT-22 [10] was determined as 53.84%.
Take `O=C1/C(=C/c2ccc(O)c(O)c2)Oc2cc(O)ccc21` [SULFURETIN]: the viability at 10 µM in [1] was 93.7%. Also, the Activity in the test with HT-22 [2] turned out to be 102.25%. The “fold change (FC)” value amounted to 1.82 in the test with HT-22 [3], 1.09 in [4], 2.02 with HT-22 [5] and 0.72 in the test on HT-22 [6]. Besides, the result with HT-22 [7] was Active.
